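Each compound was tested at five concentrations against cells in 96-well plates for 48 hours. GI50 = concentration required for 50% inhibition of growth. The concentration for full growth arrest is given as TGI.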
Key:
Assay in all cases: growth of human tumour cells (NCI), 48 h
UACC-62 melanoma = test system: UACC-62 melanoma
MALME-3M melanoma = test system: MALME-3M melanoma
SK-MEL-2 melanoma = test system: SK-MEL-2 melanoma
HCT-116 colon = test system: HCT-116 colon
KM12 colon = test system: KM12 colon
IGROV1 ovarian = test system: IGROV1 ovarian
NCI-H23 lung = test system: NCI-H23 lung
RXF 393 renal = test system: RXF 393 renal
K-562 leukemia = test system: K-562 leukemia
SF-295 CNS = test system: SF-295 CNS

SMILES	TGI (UACC-62 melanoma) [µM]	TGI (MALME-3M melanoma) [µM]	TGI (SK-MEL-2 melanoma) [µM]	TGI (HCT-116 colon) [µM]	TGI (KM12 colon) [µM]	TGI (IGROV1 ovarian) [µM]	TGI (NCI-H23 lung) [µM]	TGI (RXF 393 renal) [µM]	TGI (K-562 leukemia) [µM]	TGI (SF-295 CNS) [µM]	GI50 (KM12 colon) [µM]	GI50 (SF-295 CNS) [µM]	GI50 (UACC-62 melanoma) [µM]	GI50 (MALME-3M melanoma) [µM]	GI50 (SK-MEL-2 melanoma) [µM]	GI50 (HCT-116 colon) [µM]	GI50 (IGROV1 ovarian) [µM]	GI50 (NCI-H23 lung) [µM]	GI50 (RXF 393 renal) [µM]	GI50 (K-562 leukemia) [µM]
O=c1/c(=C/c2ccc(Cl)cc2Cl)sc2nc3ccccc3n12	> 100	> 100	> 100	> 100	> 100	> 100	> 100	> 100	> 100	> 100	–	–	–	–	–	–	–	–	–	–
O=C1OC(c2ccc(O)c(-c3ccccc3)c2)(c2ccc(O)c(-c3ccccc3)c2)c2c(Cl)c(Cl)c(Cl)c(Cl)c21	> 100	> 100	> 100	> 100	> 100	> 100	> 100	> 100	> 100	> 100	–	–	–	–	–	–	–	–	–	–
CCCCCCCCCCCCCCCC(=O)OCC(O)C1OC(=O)C(O)=C1O (configuration not stated)	75	> 100	> 100	36.7	53	84.5	96.3	86.8	77.7	40.4	–	–	–	–	–	–	–	–	–	–
Cc1nn(C(=O)c2ccc(Cl)cc2)c2c1C(c1ccc([N+](=O)[O-])cc1)SC(N)=N2 (configuration not stated)	> 10	> 10	> 10	> 10	> 10	> 10	> 10	> 10	> 10	> 10	–	–	–	–	–	–	–	–	–	–
[Cu+2].[O-]c1ccc2ccccc2c1N=Nc1ccccc1.[O-]c1ccc2ccccc2c1N=Nc1ccccc1	> 100	> 100	> 100	> 100	> 100	> 100	> 100	> 100	> 100	> 100	> 100	> 100	–	–	–	–	–	–	–	–
COc1ccc(O)c(C(=O)c2ccc(C(=O)O[C@@H]3CCCNC[C@H]3NC(=O)c3ccncc3)cc2)c1F	> 25	> 25	16.6	> 25	> 25	> 25	> 25	0.839	> 25	> 25	0.8	0.77	1.51	1.57	0.89	1.04	0.493	1.91	0.162	0.723
COc1ccc(C(O)CNC(=O)c2ccccc2)cc1 (configuration not stated)	> 100	> 100	> 100	> 100	> 100	> 100	> 100	> 100	> 100	> 100	–	–	–	–	–	–	–	–	–	–
CCN(CC)CCOc1ccc(/C=C2\CC3C4CCC5=CC(=O)CC[C@]5(C)C4CC[C@]3(C)C2=O)cc1OC (some centres not stated)	4.13	2.95	> 100	4.45	3.85	> 100	11	4.56	> 100	4.06	1.93	2.01	2.01	1.5	9.01	1.85	22.7	3.17	1.85	3.14
CCCN(CCC)c1ccc(CO)c(C)c1	> 100	94.4	78	> 100	> 100	> 100	> 100	> 100	> 100	> 100	> 100	> 100	22.8	11.3	25.7	26.9	57	35.4	22.2	27.4
CC(=O)N1CC2Nc3ccccc3C2CC1CO (configuration not stated)	> 100	> 100	> 100	> 100	> 100	> 100	> 100	> 100	> 100	> 100	–	–	–	–	–	–	–	–	–	–
CC(ONC(=O)c1cc(C(F)(F)F)cc(C(F)(F)F)c1)C(=O)Nc1ccc(Cl)cc1 (configuration not stated)	14.1	13.6	15.2	16.4	29.4	> 52	10.6	35.6	> 45.5	30.9	5	3.66	3.98	3.83	3.65	4.97	8.86	3.55	5.95	5.75
Cc1cc(NS(=O)(=O)c2ccc(NC(=O)c3cccc4c(N)c5ccccc5nc34)cc2)no1	57.7	77.4	37.2	27.6	58.3	59.3	52.2	31.9	> 100	67.2	–	–	–	–	–	–	–	–	–	–
COC(OC)c1cccc2c1C1(O)CCC3(CC21)OCCCCO3 (configuration not stated)	> 100	> 100	> 100	> 100	> 100	> 100	> 100	> 100	> 100	> 100	–	–	–	–	–	–	–	–	–	–
COc1ccc2c(c1)c(C1(c3cn(C)c4ccc(OC)cc34)C(=O)Nc3ccc(F)cc31)cn2C	56.2	89.5	9.64	15.3	> 100	> 100	> 100	16.2	> 100	18.3	5.63	2.95	7.42	6.52	3.62	3.84	4.26	6.06	3.74	4.61
O=S1(=O)CCN(Cc2ccccn2)CC1	> 100	> 100	> 100	> 100	> 100	> 100	> 100	> 100	> 100	> 100	–	–	–	–	–	–	–	–	–	–
CN(C)CCn1c2ccccc2c2nc3cc4ccccc4cc3nc21	21.1	25.2	24.8	16.9	16.8	10.7	24	24.4	10.9	17	–	–	–	–	–	–	–	–	–	–
O=c1[nH]c(Br)nc2c(Br)c[nH]c12	> 100	> 100	> 100	> 100	> 100	> 100	> 100	> 100	> 100	> 100	–	–	–	–	–	–	–	–	–	–
CCC[CH2][Sn]([CH2]CCC)([O]C(=O)c1cccc(F)c1)[O]C(=O)c1cccc(F)c1	2.09	2.25	2.1	2.55	2.79	2.93	1.57	0.758	1.81	2.86	1.29	1.48	0.719	0.907	0.851	1.29	1.43	0.329	0.185	0.298
Cn1c(COC(=O)N2CCCCC2)nc2c(N3CCOCC3)nc(-c3ccccc3)nc21	2.54	2.72	3.25	0.471	3.22	1.81	3.11	1.76	6.7	2.97	1.46	1.58	1.27	1.39	1.64	0.173	0.534	1.48	0.508	0.364

Source: PubChem BioAssay (NCI)
